Reference: patent US20250034169A1, “NOVEL PYRIMIDOPYRIDINE COMPOUND, PHARMACEUTICAL COMPOSITION THEREOF, AND USE THEREOF” (SUNSHINE LAKE PHARMA CO., LTD., priority 2021, published 2025)
Where two headings read alike, the source gives them in different places.

Key:
KRAS G12D-GTP & cRAF = KRAS G12D-GTP & cRAF (Homo sapiens (Human), UniProt P01116, G12D); assay: KRAS G12D/cRAF binding experiment (HTRF); settings: competitive binding
KRAS G12D-GTP & SOS1 = KRAS G12D-GTP & SOS1 (Homo sapiens (Human), UniProt P01116, G12D); assay: KRAS G12D/SOS1 binding experiment (HTRF); settings: competitive binding
intracellular pERK = assay: Inhibitory effect on intracellular pERK, In-Cell Western, AGS cells; assay type: cell-based; settings: Homo sapiens, read-out: Inhibitory effect on intracellular pERK, IC50
[1] = Stability in human liver microsomes; assay type: in vitro ADME; settings: human, pH 7.4; for CLHep / ER: 1 μM; for half-life at 1 μM / microsomal CLint at 1 μM: microsomes
Method: (§1) Objective: To evaluate the stability of the compounds of the present invention in human and mouse liver microsomes by LC-MS/MS.
(§2) The ratio of the sample peak area to the internal standard peak area was obtained by LC/MS/MS, and the content of the compounds at 0 min was regarded as 100%, and the relative content of the compounds at each time point was calculated. The half-life of the compound was calculated by plotting the “relative content of the compound” against the “incubation time”, and the intrinsic clearance was calculated, in which the half-life and intrinsic clearance of the compound in human and mouse liver microsomes were determined in Table 3 and Table 4, respectively.

[2] = Stability in mouse liver microsomes; assay type: in vitro ADME; settings: mouse, pH 7.4; for CLHep / CLin vivo / ER: 1 μM; for half-life at 1 μM / microsomal CLint at 1 μM: microsomes
Method: as §1, §2

[3] = AGS cells, 3 h incubation, In-Cell Western

KRAS G12D-GTP & cRAF, sequence (P01116-2 other isoform, or with tags, fused parts or gaps G12D): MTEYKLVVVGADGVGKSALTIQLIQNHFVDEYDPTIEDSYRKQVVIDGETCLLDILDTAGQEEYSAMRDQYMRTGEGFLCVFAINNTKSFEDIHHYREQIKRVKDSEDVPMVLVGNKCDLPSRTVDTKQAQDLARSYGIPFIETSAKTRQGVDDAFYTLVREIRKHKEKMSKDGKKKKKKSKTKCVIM
KRAS G12D-GTP & SOS1, sequence (P01116-2 other isoform, or with tags, fused parts or gaps G12D): as above

Row | SMILES | IC50 (KRAS G12D-GTP & cRAF) [nM] | IC50 (KRAS G12D-GTP & SOS1) [nM] | IC50 (intracellular pERK; [3]) [nM] | also measured
1 | C#Cc1c(F)ccc2cc(O)cc(-c3nc(OCCC(F)(F)F)c4c(N5CC6CCC(C5)N6)nc(OC[C@@]56CCCN5C[C@H](F)C6)nc4c3F)c12 [Compound 9] | 8.8 | 12.6 | 0.6 | 
2 | C#Cc1c(F)ccc2cc(O)cc(-c3nc(OCCOC)c4c(N5CC6CCC(C5)N6)nc(OC[C@@]56CCCN5C[C@H](F)C6)nc4c3F)c12 [Compound 10] | 8.7 | 13.9 |  | 
3 | [2H]C([2H])([2H])c1nc(-c2cc(O)cc3ccc(F)c(C#C)c23)c(F)c2nc(OC[C@@]34CCCN3C[C@H](F)C4)nc(N3CC4CCC(C3)N4)c12 [Compound 11] | 9.2 | 19.8 |  | 
4 | C#Cc1c(F)ccc2cc(O)cc(-c3nc(COC)c4c(N5CC6CCC(C5)N6)nc(OC[C@@]56CCCN5C[C@H](F)C6)nc4c3F)c12 [Compound 12] | 9.7 | 10.3 |  | 
5 | C#Cc1c(F)ccc2cc(O)cc(-c3nc(C(=O)OCC)c4c(N5CC6CCC(C5)N6)nc(OC[C@@]56CCCN5C[C@H](F)C6)nc4c3F)c12 [Compound 13] | 5.1 | 11.3 |  | 
6 | C#Cc1c(F)ccc2cc(O)cc(-c3nc(C#CCC)c4c(N5CC6CCC(C5)N6)nc(OC[C@@]56CCCN5C[C@H](F)C6)nc4c3F)c12 [Compound 24] | 13.6 | 15.1 |  | IC50 (intracellular pERK; AGS, 3 h): 0.2 nM
7 | C#Cc1c(F)ccc2cc(O)cc(-c3nc(C#CCOC)c4c(N5CC6CCC(C5)N6)nc(OC[C@@]56CCCN5C[C@H](F)C6)nc4c3F)c12 [Compound 25] | 15 | 16.8 |  | IC50 (intracellular pERK; AGS, 3 h): 0.8 nM
8 | C#Cc1c(F)ccc2cc(O)cc(-c3nc(COC)c4c(N5CC6CCC(C5)N6)nc(OC[C@@]56CCCN5C[C@H](F)C6)nc4c3F)c12 [Compound 26] |  |  | 0.4 | 
9 | C#Cc1c(F)ccc2cc(O)cc(-c3nc(C#CC4CCCC4)c4c(N5CC6CCC(C5)N6)nc(OC[C@@]56CCCN5C[C@H](F)C6)nc4c3F)c12 [Compound 28] | 11.1 | 11.5 |  | 
10 | C#Cc1c(F)ccc2cc(O)cc(-c3nc(C#CCC(C)C)c4c(N5CC6CCC(C5)N6)nc(OC[C@@]56CCCN5C[C@H](F)C6)nc4c3F)c12 [Compound 29] | 14.7 | 15.9 | 1 | 
11 | C#Cc1c(F)ccc2cc(O)cc(-c3nc(C#CCCC(C)C)c4c(N5CC6CCC(C5)N6)nc(OC[C@@]56CCCN5C[C@H](F)C6)nc4c3F)c12 [Compound 30] | 8.8 | 13.4 | 0.8 | 
12 | C#Cc1c(F)ccc2cc(O)cc(-c3nc(C#CCCC#N)c4c(N5CC6CCC(C5)N6)nc(OC[C@@]56CCCN5C[C@H](F)C6)nc4c3F)c12 [Compound 31] | 24.6 | 34.6 |  | 
13 | C#Cc1c(F)ccc2cc(O)cc(-c3nc(C#CCCCC)c4c(N5CC6CCC(C5)N6)nc(OC[C@@]56CCCN5C[C@H](F)C6)nc4c3F)c12 [Compound 39] |  |  | 0.5 | CLHep [1]: 19.0 mL/min/kg; ER [1]: 0.48; half-life at 1 μM [1]: 1.52 h; microsomal CLint at 1 μM [1]: 15.2 µL/min/mg; CLHep [2]: 53.4 mL/min/kg; CLin vivo [2]: 33.5 mL/min/kg; ER [2]: 0.37; half-life at 1 μM [2]: 1.7 h; microsomal CLint at 1 μM [2]: 13.5 µL/min/mg
14 | C#Cc1c(F)ccc2cc(O)cc(-c3nc(C#C)c4c(N5CC6CC(C5)N6)nc(OC[C@@]56CCCN5C[C@H](F)C6)nc4c3F)c12 [Compound 41] | 22 | 31.4 |  | 
15 | C#Cc1c(F)ccc2cc(O)cc(-c3nc(C#C)c4c(N5CCN[C@@H](C)C5)nc(OC[C@@]56CCCN5C[C@H](F)C6)nc4c3F)c12 [Compound 43] | 16.3 | 24.1 |  | 
16 | C#Cc1c(F)ccc2cc(O)cc(-c3nc(C#C)c4c(N5C[C@@H]6C[C@H]5CN6)nc(OC[C@@]56CCCN5C[C@H](F)C6)nc4c3F)c12 [Compound 44] | 15.2 | 29.6 |  | 
17 | C#Cc1c(F)ccc2cc(O)cc(-c3nc(C#C)c4c(N5CC6CCC(C5)N6)nc(OC[C@H]5CCCN5C)nc4c3F)c12 [Compound 50] | 19.1 | 36.2 |  | 
18 | C#Cc1c(F)ccc2cc(O)cc(-c3nc(C#C)c4c(N5CC6CCC(C5)N6)nc(OC[C@@H]5CCCN5C)nc4c3F)c12 [Compound 51] | 11.1 | 20.8 | 1.2 | 
19 | C#Cc1c(F)ccc2cc(O)cc(-c3nc(C#C)c4c(N5CC6CCC(C5)N6)nc(OCC5(CN(C)C)CC5)nc4c3F)c12 [Compound 52] | 7.7 | 15.2 | 1.5 | 
20 | C#Cc1c(F)ccc2cc(O)cc(-c3nc(C#C)c4c(N5CC6CCC(C5)N6)nc(OCC5(CN6CCOCC6)CC5)nc4c3F)c12 [Compound 53] | 4.3 | 14.6 | 0.4 | 
21 | C#Cc1c(F)ccc2cc(O)cc(-c3nc(C#C)c4c(N5CC6CCC(C5)N6)nc(OCC56CCCN5CCC6)nc4c3F)c12 [Compound 54] |  |  |  | CLHep [1]: 5.6 mL/min/kg; ER [1]: 0.21; half-life at 1 μM [1]: 5.2 h; microsomal CLint at 1 μM [1]: 4.4 µL/min/mg; CLHep [2]: 31.9 mL/min/kg; CLin vivo [2]: 23.5 mL/min/kg; ER [2]: 0.26; half-life at 1 μM [2]: 2.86 h; microsomal CLint at 1 μM [2]: 8.1 µL/min/mg
22 | C#Cc1c(F)ccc2cc(O)cc(-c3nc(C#C)c4c(N5CC6CCC(C5)N6)nc(OCCC(F)(F)F)nc4c3F)c12 [Compound 55] | 9.8 | 14.8 |  | 
23 | C#Cc1c(F)ccc2cc(O)cc(-c3nc(C#C)c4c(N5CC6CCC(C5)N6)nc(OCC5CCCC5)nc4c3F)c12 [Compound 56] | 18.5 | 15.7 |  | 
24 | C#Cc1nc(-c2cc(O)cc3ccc(F)c(CC)c23)c(F)c2nc(OC[C@@]34CCCN3C[C@H](F)C4)nc(N3CC4CCC(C3)N4)c12 [Compound 65] | 9.9 | 18.5 |  | IC50 (intracellular pERK; AGS, 3 h): 0.4 nM
25 | C#Cc1nc(-c2cc(O)cc3ccccc23)c(F)c2nc(OC[C@@]34CCCN3C[C@H](F)C4)nc(N3CC4CCC(C3)N4)c12 [Compound 66] | 5.9 | 11.7 |  | 
26 | C#Cc1nc(-c2cc(O)cc3cccc(F)c23)c(F)c2nc(OC[C@@]34CCCN3C[C@H](F)C4)nc(N3CC4CCC(C3)N4)c12 [Compound 68] | 6.5 | 16.6 | 0.8 | 
27 | C#Cc1nc(-c2cc(O)cc(Cl)c2C2CC2)c(F)c2nc(OC[C@@]34CCCN3C[C@H](F)C4)nc(N3CC4CCC(C3)N4)c12 [Compound 78] | 7.5 | 17.3 |  | 
28 | C#Cc1c(F)ccc2cccc(-c3nc(C#C)c4c(N5CC6CCC(C5)N6)nc(OC[C@@]56CCCN5C[C@H](F)C6)nc4c3F)c12 [Compound 84] | 20.8 | 29.6 |  | 
29 | C#CCOc1nc(-c2cc(O)cc3ccc(F)c(C#C)c23)c(F)c2nc(OC[C@@]34CCCN3C[C@H](F)C4)nc(N3CC4CCC(C3)N4)c12 [Compound 91] |  |  | 0.3 | 
